Assays:
[1] = tested on: PRKACA-PRKAR2A interaction (SmBiT-PRKACA / LgBiT-PRKAR2A), protein kinase A; parameters: NanoLuc complementation counter-screen in cell extract, PRKACA with PRKAR2A, loss of luminescence, detects NanoLuc interference; conditions: counter-screen for NanoLuc interference; 0.5 h, 20 µM; inhibitor
Description: In the screens described here, the lysate obtained from a single 15 cm plate was used for 2.5 384-well assay plates. NanoLuc substrate (furimazine) (Promega, N1110) was diluted 1000-fold in passive lysis buffer (Promega, E1941) and added 1:1 to the lysate. Screening libraries were purchased from Asinex[40] and ApexBio (FDA-approved Drug Library, L1021). Compounds were dispensed using an Echo acoustic dispenser and tested at a final concentration of 20 µM in a total assay volume of 20 μl in 384-well plate format. DMSO was added to each well at a final concentration of 0.2% (v/v) and wells containing only DMSO were used as negative control. After 30 min incubation at room temperature, luminescence was measured on a Tecan M1000 multi-mode plate reader. Raw luminescence reads from each well on each plate were normalized to the median luminescence signal for that plate. […] After plate normalization the robust SSMD (SSMD*) was calculated as described elsewhere. […] The interaction between PRKACA and PRKAR2A, which are the catalytic and regulatory subunits of human protein kinase A (PKA) respectively, has previously been measured using a NanoLuc complementation assay. […] The effects of the four compounds identified from the Asinex library were assessed in the control PKA-based NanoLuc assay. […]

[2] = biological target: T1, MeCP2-TBL1 interaction (MeCP2-SmBiT / TBL1-LgBiT) (Mus musculus, UniProt Q9QXE7); test: MeCP2-TBL1 NanoLuc luciferase complementation assay (cell-free, extracts of transfected HEK293 cells); format: binding, human; conditions: dose response 0.3–60 μM, triplicate, 30 min, luminescence normalized to DMSO; read-out: IC50, inhibition of MeCP2-TBL1 luminescence signal
T1 construct: expressed in transfected cells; crude lysate used as a cell-free assay
T1 sequence (Q9QXE7 166-527): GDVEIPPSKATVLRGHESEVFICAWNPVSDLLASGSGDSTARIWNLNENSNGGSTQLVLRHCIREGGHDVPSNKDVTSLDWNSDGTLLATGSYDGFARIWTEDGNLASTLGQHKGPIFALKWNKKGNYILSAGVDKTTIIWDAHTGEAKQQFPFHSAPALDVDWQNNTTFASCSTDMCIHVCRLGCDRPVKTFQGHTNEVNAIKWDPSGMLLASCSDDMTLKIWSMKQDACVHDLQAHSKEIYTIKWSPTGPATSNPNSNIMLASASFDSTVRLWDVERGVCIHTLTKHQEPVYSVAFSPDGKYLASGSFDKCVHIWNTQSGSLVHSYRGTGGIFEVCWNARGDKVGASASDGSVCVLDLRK
Procedure, shortened: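 Cell-free split NanoLuc: lysate of HEK293 cells co-expressing the MeCP2 C-terminal half-SmBiT and TBL1 WD domain-LgBiT, mixed 1:1 with furimazine. After 30 min at room temperature, luminescence was plate-median normalized.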

TBLR1 = biological target: T2, TBLR1 (Homo sapiens, UniProt Q9BZK7); test: MeCP2 peptide SPOT array probed with recombinant HIS6-tagged TBLR1; format: binding; conditions: recombinant HIS6-tagged TBLR1 2 µM
T2 sequence (Q9BZK7 1-514): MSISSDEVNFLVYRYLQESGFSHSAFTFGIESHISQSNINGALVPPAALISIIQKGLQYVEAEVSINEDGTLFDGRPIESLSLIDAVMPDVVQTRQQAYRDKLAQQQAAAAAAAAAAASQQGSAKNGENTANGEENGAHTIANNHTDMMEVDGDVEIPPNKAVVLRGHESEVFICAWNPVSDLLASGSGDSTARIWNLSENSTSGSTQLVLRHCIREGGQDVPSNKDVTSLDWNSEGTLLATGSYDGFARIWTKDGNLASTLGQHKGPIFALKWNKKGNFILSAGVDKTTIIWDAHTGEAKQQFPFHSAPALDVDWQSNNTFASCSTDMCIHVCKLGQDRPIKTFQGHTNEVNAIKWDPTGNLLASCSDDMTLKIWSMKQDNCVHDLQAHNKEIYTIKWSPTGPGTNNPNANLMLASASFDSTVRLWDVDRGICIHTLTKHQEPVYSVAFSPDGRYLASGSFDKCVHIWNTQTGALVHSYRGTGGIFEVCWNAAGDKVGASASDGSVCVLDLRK
Description: The Z-factor is a statistic frequently used to assess the suitability of an assay for high throughput screening. We calculated the Z-factor of our assay in 384-well plate format using a short 12 residue MeCP2 NID derived-peptide variant as positive control and DMSO as negative control.
Western blotting was performed using antibodies against NanoLuc (Promega), MeCP2 (Sigma, M6818) and Sin3A (Abcam, Ab3479). […] The biotin at the N-terminus of these peptides was not relevant to the experiments in this work. […] The array membrane was incubated with recombinant HIS6‐tagged TBLR1 (2 µM) and immunodetection was performed with anti-HIS antibody (Sigma, H1029). Uniform synthesis efficiency across the array was ascertained by UV absorption. […] Note the shorter N-terminus and longer C-terminus of this peptide compared to the sequences used on the SPOT array. UMT026-2 was used at 50 µM when calculating the Z-factor[39].
The wild-type amino acids at these positions (Pro, Ile, Lys and Lys) make directs contacts with TBLR1. Arrows denote spots with increased binding and red dots indicate the wild-type amino acid.

Molecule | Inh (PKA) [1] [%] | IC50 [2] [µM] | TBL1/TBLR1 binding on peptide SPOT array relative to wild type (TBLR1)
C=C1C(=O)O[C@@H]2[C@H]3O[C@]3(C)CC/C=C(\C)CC[C@@H]12 [UM0142841:01, Parthenolide] | 0.7412 | – | –
Ac-ETVLPIYKRKTR-NH2 [K304Y mutant peptide] | – | ~40 | stronger TBL1/TBLR1 binder
